According to PubChem BioAssay AID2060615 (Molecular Pharmacology Branch, DTP, NCI, 2025):
Values belong to the compound of their own block, whether it stands above or below them.

Test system: 496974-208-R-J2-PDC complex spheroids, growth % test/control
Assay: Anticancer human tumor 496974-208-R-J2-PDC patient-derived pancreatic carcinoma cell line growth inhibition [CLK]
Conditions: for IC50: curve of first compound; for viability, T/C: stronger effect = lower value
Description: A high-throughput screen of multi-cell type tumor spheroids was designed to identify active combinations of […] and targeted small molecules. Complex spheroids include a stromal component modeled by human endothelial cells (HUVEC) and fibroblasts modeled by human mesenchymal stem cells (MSCs). The concentration ranges selected for each drug and investigational agent were based upon clinically achievable concentrations if the clinical Cmax of the agent was known.
Compounds. The drugs and investigational agents: cirtuvivint (SM08502; NSC835563), CC-671 (NSC850746), vemurafenib (NSC761431), tapotoclax (NSC804041), sotorasib (NSC818433), adagrasib (NSC831453), MRTX-1133 (NSC836407), BAY2416964 (NSC825713), copanlisib (NSC816437), inavolisib (NSC800729), abemaciclib (NSC768073), osimertinib (NSC779217), entinostat (NSC756642), eltanexor (KPT-8602, NSC794443), venetoclax (NSC766270), ceralasertib (NSC777638), bortezomib (NSC756655), olaparib (NSC753686), talazoparib (NSC767125), alisertib (NSC759677), peposertib (NSC802822), gemcitabine (NSC613327), 5-fluorouracil (NSC19893), SN-38 (NSC673596), oxaliplatin (NSC266046), paclitaxel (NSC125973), and doxorubicin (NSC123127), were obtained from the National Cancer Institute (NCI) Developmental Therapeutics Program Chemical Repository. The FDA-approved anticancer drug set is available from the Developmental Therapeutics Program at https://dtp.cancer.gov/organization/dscb/obtaining/available plates.htm. […] The stock solutions were prepared in dimethyl sulfoxide (DMSO, Sigma-Aldrich, St. Louis, MO, cat. D2650), except for the platinum complexes which were prepared in saline (Quality Biological, Gaithersburg, MD, cat. 114-055-101), at 800-fold the tested concentration and stored at -70 degrees C prior to their use. All drugs and investigational agents were tested over a range starting from a high concentration at or near the clinical Cmax and decreasing in half-log increments. If the clinical Cmax for an agent had not been determined, the highest concentration tested was 10 microM.
Cell Culture. All cells were maintained in an incubator at 37 degrees C and 5% CO2 with 95% humidity. The PDC lines were cultured according to standard operating procedures established by the NCI PDMR. Briefly, all PDCs were thawed and cultured in Matrigel-coated flasks prepared with a working solution of 1X Ham's F-12 nutrient mix, without supplementation (Invitrogen, Waltham, MA, cat. 11765054), 100 U/mL penicillin-streptomycin (Invitrogen, cat. 15140122), and 2.5% Matrigel (Corning Inc., Corning, NY, cat. 354248) for the first three passages. The 947758-054-R-J2-PDC line was cultured in 6B/Colon 1A media, which includes advanced DMEM/F-12 (Thermo Fisher Scientific, cat. 12634028), 10 mM HEPES (Thermo Fisher Scientific, cat. 15630080), 1X GlutaMAX supplement (Thermo Fisher Scientific, cat. 35050061), 0.1 mg/mL primocin (InvivoGen, cat. ant-pm-2), 10% defined fetal bovine serum, heat inactivated (HyClone Laboratories Inc., cat. SH30070.03HI), 1.25 mM N-Acetyl-L-cysteine (Sigma-Aldrich, cat. A9165), 10 mM nicotinamide (Sigma-Aldrich, cat. N0636), 1X B-27 supplement (Thermo Fisher Scientific, cat. 17504044), 1X N-2 supplement (Thermo Fisher Scientific, cat. 17502048), and 10 microM Y-27632 dihydrochloride (Tocris Bioscience, cat. 1254). The 876862-298-R-J1-PDC was cultured in 6E media, which includes all 6B/Colon 1A media components plus 50% L-WRN conditioned media (ATCC, cat. CRL-3276), 50 ng/mL recombinant human EGF recombinant protein (hEGF; Thermo Fisher Scientific, cat. PHG0311), 10 ng/mL recombinant human fibroblast growth factor 10 (hGFG-10; PeproTech, cat. 100-26), 1 ng/mL recombinant human fibroblast growth factor 2 (hFGF-2; PeproTech, cat. 100-18B), and 1 µM prostaglandin E2 (PGE2; Tocris, cat. 2296). The 227483-062-R1-J1-PDC line was cultured in Panc media, containing all 6E components except hFGF-2, with the addition of 500 nM SB-431542 (Selleckchem, cat. S1067) and 10 nM gastrin (Tocris, cat. 3006). […]

[1] = second compound 0.0316 µM, first compound 0.0316 µM
[2] = second compound 0.0316 µM, first compound 0.1 µM
[3] = second compound 0.0316 µM, first compound 0.316 µM
[4] = second compound 0.0316 µM, first compound 1 µM
[5] = second compound 0.1 µM, first compound 0.0316 µM
[6] = second compound 0.1 µM, first compound 0.1 µM
[7] = second compound 0.1 µM, first compound 0.316 µM
[8] = second compound 0.1 µM, first compound 1 µM
[9] = second compound 0.316 µM, first compound 0.0316 µM
[10] = second compound 0.316 µM, first compound 0.1 µM
[11] = second compound 0.316 µM, first compound 0.316 µM
[12] = second compound 0.316 µM, first compound 1 µM
[13] = second compound 1 µM, first compound 0.0316 µM
[14] = second compound 1 µM, first compound 0.1 µM
[15] = second compound 1 µM, first compound 0.316 µM
[16] = second compound 1 µM, first compound 1 µM
[17] = second compound 3.16 µM, first compound 0.0316 µM
[18] = second compound 3.16 µM, first compound 0.1 µM
[19] = second compound 3.16 µM, first compound 0.316 µM
[20] = second compound 3.16 µM, first compound 1 µM
[21] = second compound 10 µM, first compound 0.0316 µM
[22] = second compound 10 µM, first compound 0.1 µM
[23] = second compound 10 µM, first compound 0.316 µM
[24] = second compound 10 µM, first compound 1 µM
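Also: spheroids exposed to the drugs for 7 days before readout.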
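For viability, T/C in this document: 100% = DMSO vehicle control wells.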

IC50 (second compound 0.0316 µM): > 1 µM | IC50 (second compound 0.1 µM): > 1 µM | IC50 (second compound 0.316 µM): > 1 µM | IC50 (second compound 1 µM): > 1 µM | IC50 (second compound 3.16 µM): > 1 µM | IC50 (second compound 10 µM): > 1 µM
Compound: CCN1CCN(Cc2ccc(Nc3ncc(F)c(-c4cc(F)c5nc(C)n(C(C)C)c5c4)n3)nc2)CC1 + CNC(=O)c1ccc(Nc2nc(OC3CCCC3)c3c(-c4ccc5nc(C)oc5c4)c[nH]c3n2)c(OC)c1
viability, T/C (second compound 0.0316 µM, first compound 0.00316 µM): 91.7% | viability, T/C (second compound 0.0316 µM, first compound 0.01 µM): 90.2% | viability, T/C [1]: 90.1% | viability, T/C [2]: 94.2% | viability, T/C [3]: 98% | viability, T/C [4]: 98.4% | viability, T/C (second compound 0.1 µM, first compound 0.00316 µM): 89.5% | viability, T/C (second compound 0.1 µM, first compound 0.01 µM): 88.9% | viability, T/C [5]: 87.9% | viability, T/C [6]: 84.2% | viability, T/C [7]: 86.8% | viability, T/C [8]: 97.5% | viability, T/C (second compound 0.316 µM, first compound 0.00316 µM): 81.3% | viability, T/C (second compound 0.316 µM, first compound 0.01 µM): 81.9% | viability, T/C [9]: 87.8% | viability, T/C [10]: 81.4% | viability, T/C [11]: 85.4% | viability, T/C [12]: 94.8% | viability, T/C (second compound 1 µM, first compound 0.00316 µM): 78.7% | viability, T/C (second compound 1 µM, first compound 0.01 µM): 81.2% | viability, T/C [13]: 77.7% | viability, T/C [14]: 76.3% | viability, T/C [15]: 92.6% | viability, T/C [16]: 81.8% | viability, T/C (second compound 3.16 µM, first compound 0.00316 µM): 72.5% | viability, T/C (second compound 3.16 µM, first compound 0.01 µM): 71.9% | viability, T/C [17]: 66.7% | viability, T/C [18]: 77.6% | viability, T/C [19]: 69.3% | viability, T/C [20]: 73.7% | viability, T/C (second compound 10 µM, first compound 0.00316 µM): 63% | viability, T/C (second compound 10 µM, first compound 0.01 µM): 61.7% | viability, T/C [21]: 67.7% | viability, T/C [22]: 69.3% | viability, T/C [23]: 74.7% | viability, T/C [24]: 75%

IC50 (second compound 0.0316 µM): 5.46 µM | IC50 (second compound 0.1 µM): 4.52 µM | IC50 (second compound 0.316 µM): 4.15 µM | IC50 (second compound 1 µM): 2.74 µM | IC50 (second compound 3.16 µM): 2.32 µM | IC50 (second compound 10 µM): 0.549 µM
Compound: C=C(F)C(=O)N1CCN(c2nc(OCC3CCCN3C)nc3c2CCN(c2cccc4cccc(Cl)c24)C3)CC1CC#N (centres undefined) + CNC(=O)c1ccc(Nc2nc(OC3CCCC3)c3c(-c4ccc5nc(C)oc5c4)c[nH]c3n2)c(OC)c1
viability, T/C [1]: 89% | viability, T/C [2]: 91.7% | viability, T/C [3]: 90.5% | viability, T/C [4]: 90.6% | viability, T/C (second compound 0.0316 µM, first compound 3.16 µM): 91.4% | viability, T/C (second compound 0.0316 µM, first compound 10 µM): 4.85% | viability, T/C [5]: 79.2% | viability, T/C [6]: 73.6% | viability, T/C [7]: 72.9% | viability, T/C [8]: 76.1% | viability, T/C (second compound 0.1 µM, first compound 3.16 µM): 71.7% | viability, T/C (second compound 0.1 µM, first compound 10 µM): 1.82% | viability, T/C [9]: 80.4% | viability, T/C [10]: 72.9% | viability, T/C [11]: 73.5% | viability, T/C [12]: 76.2% | viability, T/C (second compound 0.316 µM, first compound 3.16 µM): 63.8% | viability, T/C (second compound 0.316 µM, first compound 10 µM): 5.04% | viability, T/C [13]: 69.5% | viability, T/C [14]: 68.5% | viability, T/C [15]: 64.7% | viability, T/C [16]: 64.8% | viability, T/C (second compound 1 µM, first compound 3.16 µM): 47.9% | viability, T/C (second compound 1 µM, first compound 10 µM): 0.69% | viability, T/C [17]: 59.8% | viability, T/C [18]: 59.4% | viability, T/C [19]: 55.8% | viability, T/C [20]: 56.9% | viability, T/C (second compound 3.16 µM, first compound 3.16 µM): 47.5% | viability, T/C (second compound 3.16 µM, first compound 10 µM): 1.05% | viability, T/C [21]: 56.4% | viability, T/C [22]: 52.2% | viability, T/C [23]: 48.4% | viability, T/C [24]: 45.4% | viability, T/C (second compound 10 µM, first compound 3.16 µM): 39.8% | viability, T/C (second compound 10 µM, first compound 10 µM): 1.59%
